# In article PMC10612255, “Discovery of novel 2,3,4,5-tetrahydrospiro[benzo[c]azepine-1,1’-cyclohexan]-5-ol derivatives as PARP-1 inhibitors” (BMC Chemistry, 2023):
# Several values for one entry are separate records, joined by “and”; a condition that tells them apart may be missing. Equal values may be shown once.
# Key:
# [1] = system: A549; assay: MTT assay, anti-proliferative effect on A549 cells; type: cell-based, human; conditions: Homo sapiens, A549, 72 h, read-out: IC50 A549
# Method: (§1) A549, OVCAR-3, HCT-116, and MCF-7 were purchased from American type culture collection (ATCC, USA). […] And all cell lines used in the experiment were tested for mycoplasma contamination every two weeks.
# (§2) A549, OVCAR-3, HCT-116, and MCF-7 cells were seeded in 96-well plates, and then treated with target compounds for 72 h. Then, 20 µL MTT (5 mg/mL, in PBS) was added into each well, and dissolved in 150 µL DMSO after incubation for 4 h. Finally, the absorbance was measured with microplate reader (490 nm).
# [2] = system: PAR; assay: Western blot of PAR in A549 cells; type: cell-based, human; conditions: best effect at 4.0 µM, P < 0.001
# Method: PARylation is a critical post-translational modification in which ADP-ribose units are added to a wide array of target proteins by PARP-1 [33–35]. PAR is the active product of PARP-1, and the biosynthesis of PAR will be reduced while PARP-1 is inhibited. Here, we used the western blot to evaluate PAR levels and PARP-1 expression.
# (§3) The cells were plated in 6-well plates and incubated with different concentrations of compound 11b for a specified time. The cells were then collected, and tested using a standard western blot as described before.
# [3] = biological target: T1, PARP-2 (Homo sapiens, UniProt Q9UGN5); assay: PARP-2 enzyme inhibition, colorimetric 96-well PARP assay kit; type: biochemical; conditions: in vitro enzyme, Mean ± SD
# T1 construct: purchased BPS Bioscience, USA 80,581
# T1 sequence (Q9UGN5 whole entry): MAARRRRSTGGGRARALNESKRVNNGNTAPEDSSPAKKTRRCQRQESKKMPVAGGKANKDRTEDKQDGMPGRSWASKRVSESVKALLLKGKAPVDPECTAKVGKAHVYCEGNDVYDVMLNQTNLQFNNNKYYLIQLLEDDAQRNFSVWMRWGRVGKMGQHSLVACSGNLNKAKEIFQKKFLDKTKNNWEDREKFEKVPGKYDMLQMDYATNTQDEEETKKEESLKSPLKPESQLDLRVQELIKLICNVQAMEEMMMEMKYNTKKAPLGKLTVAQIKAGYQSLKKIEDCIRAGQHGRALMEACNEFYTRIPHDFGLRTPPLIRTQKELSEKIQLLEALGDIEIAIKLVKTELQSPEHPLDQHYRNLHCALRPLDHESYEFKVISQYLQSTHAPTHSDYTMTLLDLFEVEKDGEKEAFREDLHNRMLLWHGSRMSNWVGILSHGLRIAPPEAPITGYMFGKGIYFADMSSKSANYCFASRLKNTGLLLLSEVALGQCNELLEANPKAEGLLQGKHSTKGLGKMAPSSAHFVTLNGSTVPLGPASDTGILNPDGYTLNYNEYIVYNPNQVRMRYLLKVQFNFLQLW
# Method: (§4) The PARP-1 and PARP-2 inhibition assays were performed by the colorimetric 96-well PARP assay kits provided by BPS Bioscience, USA.
# [4] = system: HTB-125; assay: Selectivity index (SI) versus HTB-125 normal cells; type: cell-based; conditions: SI = CC50/IC50; Human normal breast cell; means ± SD
# [5] = system: IOSE80; assay: Selectivity index (SI) versus IOSE80 normal cells; type: cell-based; conditions: SI = CC50/IC50; Human normal ovarian epithelial cells; means ± SD
# [6] = system: A549 cells; assay: Annexin-V/PI apoptosis assay by flow cytometry; type: cell-based, human; conditions: 48 h, P < 0.001
# Method: PARP-1 inhibitors have been reported to induce further apoptosis of cancer cells, which was also confirmed by our previous studies. An annexin-V/PI binding assay was conducted in A549 cells to evaluate the capacity of compound 11b to induce apoptosis in cancer cells. […] (Fig. 4).
# A549 cells were cultured in 6-well plates (3.0 × 10^5/well), and treated with DMSO (1%) or compound 11b for 48 h. The cells were then collected, washed with PBS, and stained with FITC-Annexin-V and PI (Promega Corporation, USA). Finally, the apoptosis of A549 cells was detected by flow cytometry (Becton Dickinson and Company, USA; FACS Calibur).
# [7] = biological target: T2, PARP-1 (Homo sapiens, UniProt P09874); assay: PARP-1 enzyme inhibition, colorimetric 96-well PARP assay kit; type: biochemical; conditions: in vitro enzyme, Mean ± SD
# T2 construct: purchased BPS Bioscience, USA 80,580
# T2 sequence (P09874 whole entry): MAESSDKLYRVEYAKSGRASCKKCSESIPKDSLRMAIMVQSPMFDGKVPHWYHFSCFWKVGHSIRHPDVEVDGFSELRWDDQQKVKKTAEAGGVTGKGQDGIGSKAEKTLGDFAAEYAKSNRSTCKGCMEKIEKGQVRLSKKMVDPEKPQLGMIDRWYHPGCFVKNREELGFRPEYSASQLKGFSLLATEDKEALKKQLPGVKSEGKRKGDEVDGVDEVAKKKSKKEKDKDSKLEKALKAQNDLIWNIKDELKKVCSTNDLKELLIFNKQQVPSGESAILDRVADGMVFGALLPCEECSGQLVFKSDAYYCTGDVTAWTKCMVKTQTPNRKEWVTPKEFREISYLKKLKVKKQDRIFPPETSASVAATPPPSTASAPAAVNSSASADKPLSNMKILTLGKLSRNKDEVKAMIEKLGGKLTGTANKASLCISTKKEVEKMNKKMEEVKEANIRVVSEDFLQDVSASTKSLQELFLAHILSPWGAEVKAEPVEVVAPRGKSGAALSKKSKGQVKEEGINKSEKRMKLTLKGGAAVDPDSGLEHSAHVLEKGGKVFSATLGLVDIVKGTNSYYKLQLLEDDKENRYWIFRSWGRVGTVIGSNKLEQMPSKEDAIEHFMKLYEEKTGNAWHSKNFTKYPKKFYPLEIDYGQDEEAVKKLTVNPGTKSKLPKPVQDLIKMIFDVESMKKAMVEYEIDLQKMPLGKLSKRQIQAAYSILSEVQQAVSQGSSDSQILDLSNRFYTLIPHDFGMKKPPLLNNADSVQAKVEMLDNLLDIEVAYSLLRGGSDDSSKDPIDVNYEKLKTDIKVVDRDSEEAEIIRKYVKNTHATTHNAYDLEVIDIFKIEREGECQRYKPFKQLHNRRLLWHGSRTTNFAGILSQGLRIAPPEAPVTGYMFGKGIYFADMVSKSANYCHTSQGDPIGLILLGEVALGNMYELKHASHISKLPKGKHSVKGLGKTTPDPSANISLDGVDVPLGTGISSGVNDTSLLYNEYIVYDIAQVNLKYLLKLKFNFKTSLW
# Method: as §4
# [8] = system: MCF-7; assay: MTT assay, anti-proliferative effect on MCF-7 cells; type: cell-based, human; conditions: Homo sapiens, MCF7, 72 h, read-out: IC50 MCF-7
# Method: as §1, §2
# [9] = system: HIEC; assay: Selectivity index (SI) versus HIEC normal cells; type: cell-based; conditions: SI = CC50/IC50; Human normal intestinal epithelial cells; means ± SD
# [10] = system: HPAEpiC; assay: Selectivity index (SI) versus HPAEpiC normal cells; type: cell-based; conditions: SI = CC50/IC50; Human normal alveolar epithelial cells; means ± SD
# [11] = system: OVCAR-3; assay: MTT assay, anti-proliferative effect on OVCAR-3 cells; type: cell-based, human; conditions: Homo sapiens, OVCAR-3, 72 h, read-out: IC50 OVCAR-3
# Method: as §1, §2
# [12] = system: HCT-116; assay: MTT assay, anti-proliferative effect on HCT-116 cells; type: cell-based, human; conditions: Homo sapiens, HCT-116, 72 h, read-out: IC50 HCT-116
# Method: as §1, §2
# [13] = system: Cleaved-Caspase 3 and Caspase 3; assay: Western blot of Caspase 3 and Cleaved-Caspase 3 in A549 cells; type: cell-based, human
# Method: Meanwhile, we also detected the expression of Cleaved-Caspase 3 and Caspase 3 after different treatment concentrations to explore the mechanism of compound 11b inducing cell apoptosis.
# as §3
smiles,measurement,setting,value
"OC1CCN(Cc2cn(-c3ccccc3F)nn2)C2(CCCCC2)c2ccccc21 (centres unmarked) [Compound 11b, 2-((1-(2-fluorophenyl)-1 H-1,2,3-triazol-4-yl)methyl)-2,3,4,5-tetrahydrospiro[benzo[c]azepine-1,1’-cyclohexan]-5-ol]",IC50,[1],1950 ± 330 nM
same,biosynthesis of PAR,[2],reduce the biosynthesis of PAR
same,IC50,[3],32.6 ± 1.97 nM
same,SI HTB-125,[4],7.06 ± 1.32
same,SI IOSE80,[5],10.57 ± 2.01
same,induction of apoptosis in A549 cells,[6],induce apoptosis in a dose-dependent manner
same,IC50,[7],19.2 ± 1.63 nM
same,IC50,[8],9.21 ± 2.54 µM
same,SI HIEC,[9],6.12 ± 1.76
same,SI HPAEpiC,[10],15.38 and 15.38 ± 0.97
same,IC50,[11],4.02 ± 0.24 µM
same,IC50,[12],7.45 ± 1.98 µM
same,expression of Caspase 3,[13],decreased with the increase of compound 11b concentration
same,ratio of Cleaved-Caspase 3/Caspase 3,[13],best at 4.0 µM
